From US10150793B2, “Antagonists of CB1 receptor” (INSERM (Institut National de la Santé et de la Recherche …, priority 2011, dated 2018)

Columns and labels:
CB1 receptor [1] = biological target: T1, CB1 receptor (Mus musculus, UniProt P47746); experiment: THC-induced increase in food intake in mice; assay type: in vivo; parameters: tissue Charles River Laboratories (France) (animals); host or cells: living mice, whole animal; conditions: for effect on THC-induced increase in food intake (hyperphagia) in mice: 24 h-food deprived C57B1/6 mice, THC 1 mg/kg, compound 2 mg/kg sc
Protocol: Food intake was evaluated by measuring consumption of food in the home cages of the animals. For each animal, 50-100 g of standard laboratory chow (U.A.R., France) was placed in the cleaned home cage. The remaining amount of food was weighted 1 h later and the amount of food consumed calculated.
Other pregnenolone derivatives (Table 4) for which the metabolism in downstream active steroids was reduced were tested for their ability to inhibit: 1. effects of the THC-induced cannabinoid tetrade (decrease in body temperature and in locomotor activity, (THC 10 mg/kg, compounds 6 mg/kg 15-30 min before THC) that is recognized as a sound method to evaluate the activation of the CB1 receptor; 2. THC-induced increase in food intake a typical effect of CB1 activation (THC between 0.5 and 1 mg/kg, compounds between 2 and 4 mg/kg 30 min before THC); 3. the increase in TNFalpha induced by LPS, another effects typical of CB1 […] (compounds 6 mg/kg 15 min before LPS). For each compound and each test independent groups of animals were used (at least n=6 per compound/per test).

CB1 receptor [2] = biological target: T1, CB1 receptor; experiment: THC-induced cannabinoid tetrad (body temperature, locomotor activity, catalepsy, analgesia); assay type: in vivo, mice; parameters: tissue Charles River Laboratories (France) (animals); host or cells: living mice, whole animal
dopaminergic neurons = experiment: Coupled in vivo microdialysis and electrophysiology: VTA dopaminergic neuron firing and dopamine outflow in nucleus accumbens; parameters: species or system rats
Protocol: Surgery and perfusion procedure were performed to allow concomitant electrophysiological and microdialysis monitoring. Briefly, rats were anesthetized using a 2% mixture of isoflurane/air, and a catheter was inserted into the femoral vein for intravenous drug administration. Thereafter, animals were placed in a stereotaxic frame (David Kopf Instruments, Phymep, Paris, France) equipped with a nose mask for constant delivery of the gas anesthesia (2% isoflurane during surgery, 1.5% isoflurane during electrophysiology and microdialysis experiment), and their rectal temperature was monitored and maintained at 37±1° C. by a heating pad (CMA 150, Carnégie Medecin, Phymep). […]
Single unit recording of DA neuronal firing and monitoring of DA extracellular levels were started 2 h after the beginning of probe perfusion (stabilization period). Dialysates (30 μL) were collected on ice every 15 min, and immediately analyzed to determine the baseline values of DA extracellular levels, defined by three consecutive samples in which DA content varied by less than 10% (9). […] DA neuron firing rate was recorded for 3-5 min to obtain the firing baseline, defined by a variation of less than 10% of the average frequency discharge of the DA neuron. […]
In this example the inventors further analyzed the ability of pregnenolone to inhibit the effects of CB1 activation. […]

T1 sequence (P47746 whole entry): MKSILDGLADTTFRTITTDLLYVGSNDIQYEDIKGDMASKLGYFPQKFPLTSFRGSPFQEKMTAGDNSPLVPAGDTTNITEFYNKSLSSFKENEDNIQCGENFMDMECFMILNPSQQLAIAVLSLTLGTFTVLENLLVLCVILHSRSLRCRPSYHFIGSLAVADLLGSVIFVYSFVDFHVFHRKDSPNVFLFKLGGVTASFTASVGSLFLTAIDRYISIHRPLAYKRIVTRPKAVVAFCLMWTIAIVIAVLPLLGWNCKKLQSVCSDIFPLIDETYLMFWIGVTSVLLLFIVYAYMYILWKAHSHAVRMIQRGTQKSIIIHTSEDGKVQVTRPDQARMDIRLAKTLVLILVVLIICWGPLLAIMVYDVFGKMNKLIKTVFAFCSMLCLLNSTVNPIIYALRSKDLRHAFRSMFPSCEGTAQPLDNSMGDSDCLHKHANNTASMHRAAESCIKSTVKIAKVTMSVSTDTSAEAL

CC(=O)[C@H]1CC[C@H]2[C@@H]3CC=C4C[C@@H](O)CC[C@]4(C)[C@H]3CC[C@]12C [Pregnenolone, 5-Pregnen-3β-ol-20-one]
effect on THC-induced increase in food intake (hyperphagia) in mice (CB1 receptor [1]): decreased THC-induced hyperphagia | effect on THC-induced increase in food intake (hyperphagia) in mice (CB1 receptor [1]; listed as pregnenolone): suppressed the increase in food intake | dose inhibiting THC-induced increase in food-intake (first effective dose) (CB1 receptor [1]; dose response in 24 h-food deprived mice, 0.5 mg/kg dose was ineffective): 1 mg/kg | effect on THC-induced cannabinoid tetrad (CB1 receptor [2]; pregnenolone 6 mg/kg before THC, absence of AMG): decreased all the behaviours of the THC-induced cannabinoid tetrad | effect on the AMG enhancement of THC behavioural effects (CB1 receptor [2]; pregnenolone 6 mg/kg, AMG 50 mg/kg, THC 10 mg/kg): completely reversed | effect on locomotor activity, body temperature, catalepsy and pain threshold in the absence of THC (CB1 receptor [2]; pregnenolone per se): had no effect | effect on cocaine-induced increase in activity of the dopaminergic system (dopaminergic neurons; pregnenolone 2 mg/kg sc 30 min before cocaine 0.0125 to 0.8 mg/kg iv cumulative): able to antagonize the increase in activity of the dopaminergic system | effect on THC-induced increase in dopamine release and dopaminergic neuron activity (dopaminergic neurons; sc 30 min prior to THC 0.15 to 1.2 mg/kg iv cumulative): strongly blunted the increase in dopamine release and in the activity of the dopaminergic neurons
